This is an account of results in patent publication US20230140290A1, “SALICYLAMIDE DERIVATIVES AND RELATED METHODS OF MAKING” (THE BOARD OF REGENTS OF THE UNIVERSITY OF TEXAS SY, priority 2020, published 2023).

One data set has as its system HAdV5-GFP. Description: Plaque assay (inhibition of HAdV plaque formation). The note with it: for inhibition at 10 µM: read-out: Plaque Assay (%) Inhibition (10 μM); for IC50: read-out: Plaque Assay IC50 (μM), HAdV5-GFP, low MOI, 293β5 cell line; for Selectivity index (SI): ratio of CC50 to IC50 in plaque assay. It counts as cell-based, HAdV-5. The method, then: Plaque Assay. […] When cells reached 80-90% confluency, they were infected with HAdV5-GFP (0.06 vp/cell) and rocked for 2 h at 37° C. After the incubation the inoculum was removed, and the cells were washed once with PBS.
Plaque Assay. Compounds were tested using low MOI infections (0.06 vp/cell) and at concentrations of 10 μM and in a dose-response assay ranging from 10 to 0.3 μM in a plaque assay. […] When cells reached 80-90% confluency, they were infected with HAdV5-GFP (0.06 vp/cell) and rocked for 2 h at 37° C. After the incubation the inoculum was removed, and the cells were washed once with PBS. […] The mixture also contained the compounds in concentrations ranging from 10 to 0.3 μM.

In another data set the test system is A549 cells. Kind of data set: Cytotoxicity assay (AlamarBlue). As to conditions: read-out: CC50 (μM), cytotoxic concentration 50%; A549 cell line, 48 h. The method, then: Cytotoxicity Assay. The cytotoxicity of the compounds was analyzed by commercial kit AlamarBlue® (Invitrogen, Ref. DAL1025). A549 cells at a density of 5×10^3 cells per well in 96-well plates were seeded. […] Cells were then incubated at 37° C. for 48 h following the kit protocol. The cytotoxic concentration 50 (CC50) value was obtained using the statistical package GraphPad Prism. This assay was performed in duplicate.
For orientation: Resazurin is reduced to fluorescent resorufin, in cell work by metabolically active cells.

Each structure is given as a SMILES string.

What is called inhibition is the change of the read-out against control, counted positive when it falls. Usually IC50 stands for the concentration at which inhibition is half-maximal. Regarding `O=C(Nc1cc(F)cc(C(F)(F)F)c1)c1ccccc1O` [Compound 18, N-(3-Fluoro-5-(trifluoromethyl)phenyl)-2-hydroxybenzamide], in the data set with HAdV5-GFP, the inhibition at 10 µM worked out at 98.7 ± 1.9% and the concentration for half-maximal inhibition (IC50) came out at 1.07 µM. The CC50 in the data set on A549 cells came to 16.3 µM.
For `Cc1ccc(O)c(C(=O)Nc2cc(F)cc(C(F)(F)F)c2)c1` [Compound 19, N-(3-Fluoro-5-(trifluoromethyl)phenyl)-2-hydroxy-5-methylbenzamide], in the data set with HAdV5-GFP, the inhibition at 10 µM is 98 ± 2.8% and the IC50 was found to be 0.65 µM. Besides, the CC50 in the data set with A549 cells was 15.2 µM.
Consider `O=C(Nc1cc(F)cc(C(F)(F)F)c1)c1cccc(Cl)c1` [Compound 21, 3-Chloro-N-(3-fluoro-5-(trifluoromethyl)phenyl)benzamide], for which, in the data set with HAdV5-GFP, the “Selectivity index (SI)” value amounted to 6.9, the inhibition at 10 µM was 99.3 ± 0.9% and the IC50 came to 5.61 ± 0.37 µM. Also, in the data set on A549 cells, the CC50 worked out at 38.6 ± 1.7 µM.
In the case of `O=C(NCc1ccc([N+](=O)[O-])cc1Cl)c1cc(Cl)ccc1O` [Compound 30, 5-Chloro-N-(2-chloro-4-nitrobenzyl)-2-hydroxybenzamide], in the data set on HAdV5-GFP, the inhibition at 10 µM is 100% and the IC50 is 1.4 ± 0.11 µM. In addition, the CC50 in the data set with A549 cells turned out to be 51.4 ± 3.7 µM.
As for `O=C(NCc1ccc(F)cc1Cl)c1cc(Cl)ccc1O` [Compound 31, 5-Chloro-N-(2-chloro-4-fluorobenzyl)-2-hydroxybenzamide], in the data set with HAdV5-GFP, the “Selectivity index (SI)” value was 12.1, the inhibition at 10 µM came out at 97.1 ± 4.1% and the half-inhibitory concentration (IC50) is 2.56 ± 0.06 µM. Also, in the data set on A549 cells, the CC50 came out at 30.9 ± 10.2 µM.
Turning to `O=C(NCc1ccc(Cl)cc1Cl)c1cc(Cl)ccc1O` [Compound 32, 5-Chloro-N-(2,4-dichlorobenzyl)-2-hydroxybenzamide], in the data set with HAdV5-GFP, the inhibition at 10 µM is 99.2 ± 0.4% and the IC50 is 1.73 ± 0.51 µM. Besides, in the data set on A549 cells, the CC50 came out at 30.9 ± 13.6 µM.
With `O=C(NCc1cc(F)cc(C(F)(F)F)c1)c1cc(Cl)ccc1O` [Compound 35, 5-Chloro-N-(3-fluoro-5-(trifluoromethyl)benzyl)-2-hydroxybenzamide], in the data set with HAdV5-GFP, the “Selectivity index (SI)” value worked out at 15.1, the inhibition at 10 µM came out at 98.1 ± 1.4% and the IC50 is 2.4 ± 0.05 µM. Further, the CC50 in the data set with A549 cells turned out to be 36.3 ± 7.9 µM.
`O=C(NCc1ccc(C(F)(F)F)c(F)c1)c1cc(Cl)ccc1O` [Compound 36, 5-Chloro-N-(3-fluoro-4-(trifluoromethyl)benzyl)-2-hydroxybenzamide]: in the data set with HAdV5-GFP, the inhibition at 10 µM was determined as 99 ± 1.5% and the IC50 worked out at 1.4 ± 0.02 µM. Also, the CC50 in the data set on A549 cells is 22.3 ± 7.2 µM.
For `O=C(NCc1ccc(C(F)(F)F)cc1F)c1cc(Cl)ccc1O` [Compound 37, 5-Chloro-N-(2-fluoro-4-(trifluoromethyl)benzyl)-2-hydroxybenzamide], in the data set on HAdV5-GFP, the inhibition at 10 µM came to 98.8 ± 0.8% and the IC50 came to 1.32 ± 0.04 µM. In addition, the CC50 with A549 cells was 45.6 ± 7.3 µM.
Consider `O=C(NCc1ccc(Cl)cc1)c1cc(Cl)ccc1O` [Compound 38, 5-Chloro-N-(4-chlorobenzyl)-2-hydroxybenzamide], for which, in the data set with HAdV5-GFP, the “Selectivity index (SI)” value is reported as 7.6, the inhibition at 10 µM was found to be 97.4 ± 3.7% and the IC50 worked out at 3.57 ± 1.43 µM. The CC50 in the data set with A549 cells turned out to be 27.1 ± 1.1 µM.
The matching figures for `O=C(NCc1ccc(C(F)(F)F)cc1)c1cc(Cl)ccc1O` [Compound 42, 5-Chloro-2-hydroxy-N-(4-(trifluoromethyl)benzyl)benzamide]: 9.2, 99.6 ± 0.2%, 2.59 ± 0.42 µM and 23.9 ± 9.2 µM.
Turning to `O=C(NCc1ccc([N+](=O)[O-])cc1)c1cc(Cl)ccc1O` [Compound 43, 5-Chloro-2-hydroxy-N-(4-nitrobenzyl)benzamide], in the data set with HAdV5-GFP, the “Selectivity index (SI)” value was 26.7, the inhibition at 10 µM was 99.5 ± 0.7% and the concentration for half-maximal inhibition (IC50) was found to be 6.56 ± 0.47 µM. Also, the CC50 in the data set on A549 cells is 175 ± 43.9 µM.
On to `Cc1ccc(CNC(=O)c2cc(Cl)ccc2O)cc1` [Compound 44, 5-Chloro-2-hydroxy-N-(4-methylbenzyl)benzamide], for which, in the data set on HAdV5-GFP, the “Selectivity index (SI)” value was 10.8, the inhibition at 10 µM was 96.6 ± 4% and the IC50 is 8.12 ± 2.16 µM. In addition, the CC50 with A549 cells came to 87.7 ± 4.7 µM.
On to `C[C@@H](NC(=O)c1cc(Cl)ccc1O)c1ccccc1` [Compound 46, (R)-5-Chloro-2-hydroxy-N-(1-phenylethyl)benzamide], for which the inhibition at 10 µM in the data set on HAdV5-GFP was 100%. For the same compound, in the data set with A549 cells, the CC50 was determined as 84.6 ± 20.5 µM.
Consider `C[C@H](NC(=O)c1cc(Cl)ccc1O)c1ccccc1` [Compound 47, (S)-5-Chloro-2-hydroxy-N-(1-phenylethyl)benzamide], for which, in the data set with HAdV5-GFP, the “Selectivity index (SI)” value came out at 78.5, the inhibition at 10 µM was found to be 100% and the IC50 is 2.54 µM. In addition, the CC50 with A549 cells worked out at 199 µM.
As to `C[C@@H](NC(=O)c1cc(Cl)ccc1O)c1ccc(Cl)cc1` [Compound 48, (R)-5-Chloro-N-(1-(4-chlorophenyl)ethyl)-2-hydroxybenzamide], the inhibition at 10 µM in the data set with HAdV5-GFP stood at 100%. The CC50 in the data set on A549 cells came out at 31.1 ± 3.2 µM.
Consider `O=C(NCCc1ccc(F)cc1)c1cc(Cl)ccc1O` [Compound 52, 5-Chloro-N-(4-fluorophenethyl)-2-hydroxybenzamide], for which, in the data set on HAdV5-GFP, the “Selectivity index (SI)” value turned out to be 39.1, the inhibition at 10 µM worked out at 98.7 ± 1.8% and the IC50 turned out to be 3.94 µM. The CC50 in the data set on A549 cells came out at 154 µM.
The matching figures for `O=C(Cc1cc(Cl)ccc1O)Nc1cc(F)cc(C(F)(F)F)c1` [Compound 53, 2-(5-Chloro-2-hydroxyphenyl)-N-(3-fluoro-5-(trifluoromethyl)phenyl)acetamide]: 4.8, 91 ± 3.6%, 4.92 µM and 23.7 ± 1.5 µM.
Take `O=C(CNC(=O)c1cc(Cl)ccc1O)Nc1ccc([N+](=O)[O-])cc1Cl` [Compound 56, 5-Chloro-N-(2-((2-chloro-4-nitrophenyl)amino)-2-oxoethyl)-2-hydroxybenzamide]: in the data set with HAdV5-GFP, the “Selectivity index (SI)” value worked out at 53.2, the inhibition at 10 µM amounted to 100% and the half-maximal inhibitory concentration (IC50) stood at 2.43 µM. The CC50 in the data set with A549 cells was determined as 129 µM.
Take `C[C@H](NC(=O)c1cc(Cl)ccc1O)C(=O)Nc1ccc([N+](=O)[O-])cc1Cl` [Compound 57, (S)-5-Chloro-N-(1-((2-chloro-4-nitrophenyl)amino)-1-oxopropan-2-yl)-2-hydroxybenzamide]: in the data set with HAdV5-GFP, the “Selectivity index (SI)” value is 26.0, the inhibition at 10 µM amounted to 97.4 ± 2.7% and the IC50 was found to be 3.85 µM. In addition, the CC50 with A549 cells was found to be 100 µM.
For `O=C(N[C@@H](Cc1ccccc1)C(=O)Nc1ccc([N+](=O)[O-])cc1Cl)c1cc(Cl)ccc1O` [Compound 59, (S)-5-chloro-N-(1-((2-chloro-4-nitrophenyl)amino)-1-oxo-3-phenylpropan-2-yl)-2-hydroxybenzamide], the inhibition at 10 µM in the data set on HAdV5-GFP is 100%. In addition, the CC50 in the data set with A549 cells was determined as 15.2 µM.
As to `CC(C)(C)OC(=O)CC[C@H](NC(=O)c1cc(Cl)ccc1O)C(=O)Nc1ccc([N+](=O)[O-])cc1Cl` [Compound 64, (S)-tert-Butyl 4-(5-chloro-2-hydroxybenzamido)-5-((2-chloro-4-nitrophenyl)amino)-5-oxopentanoate], in the data set on HAdV5-GFP, the “Selectivity index (SI)” value is given as 34.2, the inhibition at 10 µM came out at 97.3 ± 0.3% and the IC50 was found to be 0.67 µM. Moreover, the CC50 in the data set on A549 cells stood at 22.9 µM.
